Results published in patent publication US20120040951A1, “HETEROARYL COMPOUNDS USEFUL AS RAF KINASE INHIBITORS” (priority 2008, published 2012).

How the values were obtained:
V599E Raf = V599E Raf (Homo sapiens, UniProt P15056, V600E); assay: Biochemical FRET assay, mutant Raf (phosphorylation of MEK); details: 0.125 nM V599E Raf, 100 nM biotin-MEK, 25 μM ATP, read-out: Raf (mut) inhibition
Description: (1) Biochemical FRET Assay […]
Inhibitors were diluted 4-fold in 100% DMSO and added to a final concentration of 10 μM to 40 μM to a solution containing 100 nM biotin-MEK, 0.125 nM V599E Raf in 50 mM HEPES, pH 7.4, 60 mM NaCl, 3 mM MgCl2, 2 mM DTT, 0.25 mM MnCl2, 0.01% BSA, and 0.01% Tween-20 and incubated for 20 minutes at room temperature. The kinase reaction was started by the addition of 25 μM ATP to a final volume of 45 μl and allowed to progress for 60 minutes. The reaction was stopped with 15 mM EDTA and 20 nM Streptavidin-APC, 2.5 nM Polyclonal anti p-MEK1/2 (Ser217/221), 2.5 nM Eu-labeled anti-rabbit IgG were added in Lance detection buffer and 5% Superblock in PBS for a final volume of 100 μl. The detection reaction was incubated for 90 minutes at room temperature and then read on an Analyst plate reader using standard TR-FRET (time resolved fluorescence resonance energy transfer) settings for Eu and APC.
Compounds having an activity designated as “A” provided an IC50≦100 nM; compounds having an activity designated as “B” provided an IC50 of 100-1000 nM; and compounds having an activity designated as “C” provided an IC50 of 1000-10,000 nM.

[1] = system: phospho-ERK in melanoma derived WM-266-4 cells; assay: Mechanistic cellular assay for Raf kinase activity (phospho-ERK, Bio-Plex); type: cell-based; details: Homo sapiens, treated 1-2 hr at 37° C., serum free medium, read-out: pERK EC50
In short: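 WM-266-4 melanoma cells (wild-type/V600D BRaf) grown overnight in 10% FBS RPMI, then treated 1–2 h at 37 °C in serum-free RPMI with eight 3-fold dilutions of compound (from 5 mM DMSO stock, 1000× dilution). Lysate phospho-ERK1,2 quantified by Bio-Plex bead immunoassay.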

V599E Raf, sequence (P15056 whole entry V600E): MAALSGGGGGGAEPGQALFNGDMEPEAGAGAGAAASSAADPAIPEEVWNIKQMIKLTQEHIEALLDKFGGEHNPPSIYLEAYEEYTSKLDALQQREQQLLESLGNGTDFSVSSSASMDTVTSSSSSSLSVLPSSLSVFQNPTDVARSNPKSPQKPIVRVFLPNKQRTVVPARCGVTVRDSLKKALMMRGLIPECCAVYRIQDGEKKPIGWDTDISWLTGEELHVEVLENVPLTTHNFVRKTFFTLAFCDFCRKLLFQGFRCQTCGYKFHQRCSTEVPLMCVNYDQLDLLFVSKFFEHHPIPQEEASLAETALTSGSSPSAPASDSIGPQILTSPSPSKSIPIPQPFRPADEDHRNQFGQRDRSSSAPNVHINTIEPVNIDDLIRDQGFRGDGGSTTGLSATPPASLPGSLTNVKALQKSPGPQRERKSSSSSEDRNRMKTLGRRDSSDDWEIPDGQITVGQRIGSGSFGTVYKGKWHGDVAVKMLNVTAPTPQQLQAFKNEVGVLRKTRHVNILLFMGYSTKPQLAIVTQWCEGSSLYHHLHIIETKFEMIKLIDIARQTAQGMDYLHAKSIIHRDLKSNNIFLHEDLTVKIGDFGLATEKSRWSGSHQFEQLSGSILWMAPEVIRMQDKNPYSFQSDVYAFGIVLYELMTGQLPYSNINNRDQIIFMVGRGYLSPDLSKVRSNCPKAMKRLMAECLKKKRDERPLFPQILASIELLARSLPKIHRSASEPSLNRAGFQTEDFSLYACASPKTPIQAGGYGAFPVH

| SMILES | IC50 (V599E Raf) [nM] | EC50 [1] [nM] |
| --- | --- | --- |
| C[C@@H](NC(=O)c1cc2c(cn1)ncn2C)c1cnc(Nc2ccc(C(F)(F)F)cc2)cn1 (single isomer, unassigned) [Example 37] | ≤ 100 | ≤ 100 |
| C[C@@H](NC(=O)c1cc2c(cn1)ncn2C1CCC1)c1cnc(Nc2ccc(C(F)(F)F)cc2)cn1 (single isomer, unassigned) [Example 188] | ≤ 100 | ≤ 100 |
| C[C@@H](NC(=O)c1cc2c(cn1)ncn2C)c1cnc(Nc2ccc(C(F)(F)F)nc2)s1 (single isomer, unassigned) [Example 266] | 100 to 1000 | 1000 to 10000 |
| C[C@H](NC(=O)c1cc2c(cn1)ncn2C)c1cnc(Nc2ccc(C(F)(F)F)nc2)s1 (single isomer, unassigned) [Example 267] | ≤ 100 | ≤ 100 |
| CCN1CC(n2cnc3cnc(C(=O)N[C@H](C)c4cnc(Nc5ccc(C(F)(F)F)cc5)cn4)cc32)C1 (stereo in doubt) [Example 180] | ≤ 100 | 100 to 1000 |
| CC(NC(=O)c1cc2ncn(C)c2cn1)c1cnc(Nc2ccc(C(F)(F)F)cc2)s1 (stereo not shown) [Example 1] | ≤ 100 | 1000 to 10000 |
| CC(NC(=O)c1cc2c(cn1)ncn2C)c1cnc(Nc2ccc(C(F)(F)F)cc2)s1 (stereo not shown) [Example 2] | ≤ 100 | ≤ 100 |
| C[C@H](NC(=O)c1cc2c(cn1)ncn2C)c1cnc(Nc2ccc(C(F)(F)F)cc2)s1 [Example 3] | ≤ 100 | 1000 to 10000 |
| C[C@@H](NC(=O)c1cc2c(cn1)ncn2C)c1cnc(Nc2ccc(C(F)(F)F)cc2)s1 [Example 4] | ≤ 100 | ≤ 100 |
| CC(NC(=O)c1cc2nc[nH]c2cn1)c1cnc(Nc2ccc(C(F)(F)F)cc2)s1 (stereo not shown) [Example 5] | ≤ 100 | 100 to 1000 |
| CCn1cnc2cnc(C(=O)NC(C)c3cnc(Nc4ccc(C(F)(F)F)cc4)s3)cc21 (stereo not shown) [Example 6] | ≤ 100 | ≤ 100 |
| CC(NC(=O)c1cc2c(cn1)ncn2CCN(C)C)c1cnc(Nc2ccc(C(F)(F)F)cc2)s1 (stereo not shown) [Example 7] | ≤ 100 | ≤ 100 |
| C[C@@H](NC(=O)c1cc2c(cn1)ncn2C1CN(C(=O)OC(C)(C)C)C1)c1cnc(Nc2ccc(C(F)(F)F)cc2)s1 [Example 24] | ≤ 100 | ≤ 100 |
| CC(NC(=O)c1cc2c(cn1)ncn2CCO)c1cnc(Nc2ccc(C(F)(F)F)cc2)s1 (stereo not shown) [Example 25] | ≤ 100 | 100 to 1000 |
| C[C@@H](NC(=O)c1cc2c(cn1)ncn2[C@@H]1CCNC1)c1cnc(Nc2ccc(C(F)(F)F)cc2)s1 [Example 26] | ≤ 100 | 100 to 1000 |
| C[C@@H](NC(=O)c1cc2c(cn1)ncn2C1CNC1)c1cnc(Nc2ccc(C(F)(F)F)cc2)s1 [Example 27] | ≤ 100 | 100 to 1000 |
| CCN1CC[C@@H](n2cnc3cnc(C(=O)N[C@H](C)c4cnc(Nc5ccc(C(F)(F)F)cc5)s4)cc32)C1 [Example 28] | ≤ 100 | ≤ 100 |
| C[C@@H](NC(=O)c1cc2c(cn1)ncn2[C@H]1CCN(C(=O)OC(C)(C)C)C1)c1cnc(Nc2ccc(C(F)(F)F)cc2)s1 [Example 29] | ≤ 100 | ≤ 100 |
| CCN1CC(n2cnc3cnc(C(=O)N[C@H](C)c4cnc(Nc5ccc(C(F)(F)F)cc5)s4)cc32)C1 [Example 30] | ≤ 100 | ≤ 100 |

| SMILES | IC50 (V599E Raf) [nM] | EC50 [1] [nM] |
| --- | --- | --- |
| C[C@@H](NC(=O)c1cc2c(cn1)ncn2[C@H]1CCNC1)c1cnc(Nc2ccc(C(F)(F)F)cc2)s1 [Example 31] | ≤ 100 | 100 to 1000 |
| CC(NC(=O)c1cc2c(cn1)ncn2C(CO)CO)c1cnc(Nc2ccc(C(F)(F)F)cc2)s1 (stereo not shown) [Example 32] | ≤ 100 | 1000 to 10000 |
| CCN1CC[C@H](n2cnc3cnc(C(=O)N[C@@H](C)c4cnc(Nc5ccc(C(F)(F)F)cc5)s4)cc32)C1 [Example 33] | ≤ 100 | 100 to 1000 |
| CCNCCn1cnc2cnc(C(=O)NC(C)c3cnc(Nc4ccc(C(F)(F)F)cc4)s3)cc21 (stereo not shown) [Example 34] | ≤ 100 | 100 to 1000 |
| C[C@@H](NC(=O)c1cnn2ccccc12)c1cc(C(=O)Nc2nc3ccc(F)cc3s2)on1 [Example 210] | 100 to 1000 | – |
| C[C@@H](NC(=O)c1cnn2ccccc12)c1cc(C(=O)NC2C[C@@H]3CC[C@H]2C3)on1 (stereo partly shown) [Example 213] | 1000 to 10000 | – |
| C[C@@H]1[C@]2(C)CC[C@@]1(C)[C@@H](NC(=O)c1cc([C@@H](C)NC(=O)c3cnn4ccccc34)no1)C2 [Example 215] | 1000 to 10000 | – |
| C[C@@H](NC(=O)c1cnn2ccccc12)c1cc(C(=O)NC2CC(C)(C)NC(C)(C)C2)on1 [Example 216] | 1000 to 10000 | – |
| C[C@@H](NC(=O)c1cnn2ccccc12)c1cc(C(=O)Nc2nc(C(C)(C)C)ncc2N)no1 [Example 228] | 100 to 1000 | – |
| Cc1ccc(NC(=O)c2cc(C(C)(C)NC(=O)c3cnn4ccccc34)on2)cc1C(F)(F)F [Example 230] | 100 to 1000 | – |
| CCc1nc2cnc(C(=O)NC(C)c3ncc(Nc4ccc(C(F)(F)F)cc4)s3)cn2c1N (stereo not shown) [Example 307] | – | 1000 to 10000 |
| Cc1nc2cnc(C(=O)NC(C)c3ncc(Nc4ccc(C(F)(F)F)cc4)s3)cn2c1Cl (stereo not shown) [Example 308] | – | 1000 to 10000 |
| C[C@@H](NC(=O)c1cnc2cnccn12)c1ncc(C(=O)Nc2cc(C(F)(F)F)c(Cl)cn2)s1 [Example 312] | – | ≤ 100 |
| CC(NC(=O)c1cnc2n1CCN(C(=O)OC(C)(C)C)C2)c1cnc(Nc2ccc(C(F)(F)F)cc2)s1 (stereo not shown) [Example 313] | – | 1000 to 10000 |
| CC(NC(=O)c1cnc2n1CCNC2)c1cnc(Nc2ccc(C(F)(F)F)cc2)s1 (stereo not shown) [Example 314] | – | 100 to 1000 |
| C[C@@H](NC(=O)c1cnc2n1CCNC2)c1ncc(C(=O)Nc2cc(C(F)(F)F)c(Cl)cn2)s1 [Example 315] | – | 100 to 1000 |
| CC(NC(=O)c1cnn2cc(Br)ccc12)c1ncc(C(=O)Nc2cc(C(F)(F)F)c(Cl)cn2)s1 (stereo not shown) [Example 319] | – | 100 to 1000 |
| CC(NC(=O)c1cnn2cc(-c3ccncc3)ccc12)c1ncc(C(=O)Nc2cc(C(F)(F)F)c(Cl)cn2)s1 (stereo not shown) [Example 321] | – | ≤ 100 |
| CC(NC(=O)c1cnn2cc(-c3ccc(F)nc3)ccc12)c1ncc(C(=O)Nc2cc(C(F)(F)F)c(Cl)cn2)s1 (stereo not shown) [Example 322] | – | 100 to 1000 |

| SMILES | IC50 (V599E Raf) [nM] | EC50 [1] [nM] |
| --- | --- | --- |
| CC(NC(=O)c1cnn2cc(-c3ccc(N4CCOCC4)nc3)ccc12)c1ncc(C(=O)Nc2cc(C(F)(F)F)c(Cl)cn2)s1 (stereo not shown) [Example 323] | – | ≤ 100 |
| CC(NC(=O)c1cnn2cc(-c3cccnc3F)ccc12)c1nc(C(=O)Nc2cc(C(F)(F)F)c(Cl)cn2)cs1 (stereo not shown) [Example 324] | – | 100 to 1000 |
| CC(NC(=O)c1cnn2cc(-c3cc(F)nc(F)c3)ccc12)c1nc(C(=O)Nc2cc(C(F)(F)F)c(Cl)cn2)cs1 (stereo not shown) [Example 325] | – | 100 to 1000 |
| CC(NC(=O)c1cnn2cc(-c3ccnc(F)c3)ccc12)c1nc(C(=O)Nc2cc(C(F)(F)F)c(Cl)cn2)cs1 (stereo not shown) [Example 326] | – | 100 to 1000 |
| CC(NC(=O)c1cnn2cc(-c3cnc(N)nc3)ccc12)c1ncc(C(=O)Nc2cc(C(F)(F)F)c(Cl)cn2)s1 (stereo not shown) [Example 327] | – | ≤ 100 |
| CC(NC(=O)c1cnn2cc(-c3cncnc3)ccc12)c1ncc(C(=O)Nc2cc(C(F)(F)F)c(Cl)cn2)s1 (stereo not shown) [Example 328] | – | ≤ 100 |
| CC(NC(=O)c1cnn2cc(-c3cncc(F)c3)ccc12)c1ncc(C(=O)Nc2cc(C(F)(F)F)c(Cl)cn2)s1 (stereo not shown) [Example 329] | – | ≤ 100 |
| COc1cc(-c2ccc3c(C(=O)NC(C)c4ncc(C(=O)Nc5cc(C(F)(F)F)c(Cl)cn5)s4)cnn3c2)ccn1 (stereo not shown) [Example 330] | – | 100 to 1000 |
| C[C@@H](NC(=O)c1cnc2n1CCCC2)c1ncc(C(=O)Nc2cc(C(F)(F)F)c(Cl)cn2)s1 [Example 335] | – | ≤ 100 |
| C[C@@H](NC(=O)c1cnc2n1CCC2)c1ncc(C(=O)Nc2cc(C(F)(F)F)c(Cl)cn2)s1 [Example 336] | – | ≤ 100 |
| COc1cn2ncnc(C(=O)NC(C)c3cnc(Nc4ccc(C(F)(F)F)cc4)s3)c2c1C (stereo not shown) [Example 337] | – | 100 to 1000 |
| CCS(=O)(=O)N1CC(n2cnc3cnc(C(=O)N[C@H](C)c4cnc(Nc5ccc(C(F)(F)F)cc5)cn4)cc32)C1 [Example 342] | – | ≤ 100 |
| CC(C)S(=O)(=O)N1CC(n2cnc3cnc(C(=O)N[C@H](C)c4cnc(Nc5ccc(C(F)(F)F)cc5)cn4)cc32)C1 [Example 343] | – | ≤ 100 |
| C[C@@H](NC(=O)c1cc2c(cn1)ncn2C1CN(S(=O)(=O)CC(F)(F)F)C1)c1cnc(Nc2ccc(C(F)(F)F)cc2)cn1 [Example 344] | – | 100 to 1000 |
| C[C@@H](NC(=O)c1cc2c(cn1)ncn2C1CN(S(C)(=O)=O)C1)c1cnc(Nc2ccc(C(F)(F)F)cc2)cn1 [Example 345] | – | ≤ 100 |
| C[C@@H](NC(=O)c1cc2c(cn1)ncn2C1CN(CC(=O)O)C1)c1cnc(Nc2ccc(C(F)(F)F)cc2)s1 [Example 349] | – | 1000 to 10000 |
| CC(NC(=O)c1cc2c(cn1)ncn2CC(N)=O)c1cnc(Nc2ccc(C(F)(F)F)cc2)s1 (stereo not shown) [Example 355] | – | 1000 to 10000 |
| CC(NC(=O)c1cc2c(cn1)ncn2C)c1cnc(Nc2cc(CN(C)C)cc(C(F)(F)F)c2)s1 (stereo not shown) [Example 357] | – | 1000 to 10000 |
